{
  "source": "paper PMC6079014",
  "about": "“Calcium is an essential cofactor for metal efflux by the ferroportin transporter family” (Nature Communications, 2018)",
  "molecular_target": "T1, mouse Fpn (Fpn-C2) (Mus musculus, UniProt Q9JHI9, DEL251-290/DEL401-449)",
  "T1 construct": "generated from full-length mouse Fpn (UniProt: Q9JHI9); GFP (C); made in house; host or cells: Sf9 insect cells (baculovirus)",
  "T1 sequence (Q9JHI9 with tags, fused parts or gaps DEL251-290/DEL401-449)": "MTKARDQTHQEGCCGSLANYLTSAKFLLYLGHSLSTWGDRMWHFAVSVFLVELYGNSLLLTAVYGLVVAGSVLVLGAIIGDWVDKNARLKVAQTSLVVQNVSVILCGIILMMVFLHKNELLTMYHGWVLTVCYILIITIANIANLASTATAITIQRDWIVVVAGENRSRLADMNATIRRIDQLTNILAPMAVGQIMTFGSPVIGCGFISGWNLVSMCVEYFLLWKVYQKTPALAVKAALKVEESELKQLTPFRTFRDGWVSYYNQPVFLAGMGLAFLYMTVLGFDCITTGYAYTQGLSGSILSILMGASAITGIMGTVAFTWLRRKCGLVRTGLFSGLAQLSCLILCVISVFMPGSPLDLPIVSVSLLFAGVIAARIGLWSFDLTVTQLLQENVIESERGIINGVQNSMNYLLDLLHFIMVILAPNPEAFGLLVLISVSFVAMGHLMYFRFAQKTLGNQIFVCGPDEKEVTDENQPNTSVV",
  "test": "Isothermal titration calorimetry, thermostabilized mouse Fpn construct Fpn-C2",
  "assay_type": "binding",
  "from_the_text": "To obtain a purified mammalian Fpn protein conducive for biophysical studies, we generated a protein construct with an increased thermal stability (Deshpande et al., 2018). In brief, the construct (Fpn-C2) was generated from full-length mouse Fpn (UniProt: Q9JHI9 [https://www.uniprot.org/uniprot/Q9JHI9]) by deleting two-loop regions (residues 251–290 and 401–449), followed by an overlapping PCR incorporating the E219A mutation to generate Fpn-C2-E219A. The genes were subsequently cloned with a C-terminal GFP fusion into a baculovirus transfer vector (pFastBac1; Thermo Fisher Scientific) and the proteins were expressed using the Bac-to-Bac Baculovirus and Sf9 cells (Thermo Fisher Scientific) expression method according to the manufacturer’s protocol (Thermo Fisher Scientific). For large scale expression of the protein, 6L Sf9 cells (2 × 10^6 cells/ml) were infected with virus at an optimal multiplicity of infection (MOI) of 2.5 in Insect-XPRESS™ Protein-free Insect Cell Medium with L-glutamine (Lonza) and incubated at 27 °C with shaking at 130 rpm. The cells were spun down 48 h post-infection at 1500 × g for 10 min and the pellet stored at −20 °C until further use.\nFor Fpn-C2 and Fpn-C2-E219A purification (Deshpande et al., 2018), Sf9 cells were thawed at room temperature with the addition of 2 μl Benzonase (250 units/μL, Sigma-Aldrich), 1 mM MgSO4, 0.2 mM PMSF, and lysed by a single pass through cooled EmulsiFlex-C3 homogenizer (Avestin). All subsequent steps were performed at 4 °C. Membranes were harvested by centrifugation at 106,000 × g for 1 h, and pellets resuspended in Buffer A. The protein was subsequently purified as BbFpn, but with the addition of a second wash on the Ni-NTA column with three column volumes of 25 mM imidazole pH 8, 300 mM NaCl, and 0.03% DDM, and with 0.03% DDM instead of LMNG in the elution and SEC purification. The SEC eluted protein was concentrated to ~10 mg/ml as determined by the BCA assay (Thermo Fisher Scientific) method and stored at −80 °C until further use.\nProtein samples were purified as above and diluted to 0.03 mM (1.5 mg/ml) for ITC experiments. The buffer used for ITC was 20 mM Tris pH 8, 50 mM NaCl, and 0.004% LMNG. The buffer was degassed in vacuum (2 h) and pretreated with Chelex-100 (Bio-Rad) to remove residual calcium and/or metal ions bound with moderate affinity. This was done by first washing the Chelex-100 beads with water and then running the dialysis buffer through the beads in a gravity flow column. The samples were subsequently dialyzed overnight against their respective gel filtration buffers. ITC measurements were obtained by using a MicroCal iTC 200 calorimeter (GE Healthcare) and MicroCal PEAQ-ITC (Malvern Instruments) at 20 °C. For calcium and strontium binding measurements, a 2 mM solution was prepared in the protein buffer using a standard 1 M stock solution. […]. For MgCl2 and KCl measurements, a 2–5 mM solution was prepared in the respective buffer.\nIn each experiment, the protein solution was loaded into the sample cell, and the ligand solution was loaded in the syringe. […] To obtain the effective heat of binding, the heat of dilution, measured by injecting the ligand solution alone into buffer, was subtracted prior to data analysis. The data were fitted using the ‘one binding site’ model using the MicroCal PEAQ-ITC Analysis Software (Malvern Instruments), and the apparent molar reaction […] (ΔH°), entropy (ΔS°), dissociation constant (Kd), and stoichiometry of binding (N) were determined. […]",
  "key": {"[1]": {"details": "Supplementary Fig. 7a, one experiment"}},
  "note": "Values joined by “and” are separate entries in the source; they are usually repeats but may differ in a detail not shown here. Equal entries are not always repeated.",
  "data": [
    {"smiles": "[Ca+2]", "note": "[Ca^2+, calcium]", "values": [
      {"measurement": "-TΔS, ITC", "setting": "[1]", "result": -9.95, "unit": "kcal/mol"},
      {"measurement": "N (sites), ITC", "setting": "[1]", "result": "0.804 ± 4.8e-2"},
      {"measurement": "ΔG, ITC", "setting": "[1]", "result": -7.47, "unit": "kcal/mol"},
      {"measurement": "ΔH, ITC", "setting": "[1]", "result": "2.49 ± 0.210", "unit": "kcal/mol"},
      {"measurement": "Kd", "setting": "thermostabilized mouse Fpn-C2, read-out: Kd (ITC)", "result": "~3000 nM and 2700 nM"}
    ]}
  ]
}
